Earlier results on two compounds are cited in patent publication US7270977B2, “Polypeptides for identifying fungicidally active compounds” (priority 2001, dated 2007).

The subject of data set [1] is C. albicans cells. The settings on record: cited from earlier work; for effect on C. albicans: in words.
Data set [2] addresses recombinant IMPDH from Pneumocystis carinii (Pneumocystis carinii, UniProt Q12658). Conditions: recombinant P. carinii IMPDH; read-out: concentration resulting in 50% inhibition of the activity of the recombinant IMPDH; cited from earlier work.
Data set [3] relates to Candida krusei. The settings on record: in words; cited from earlier work.
Data set [4] relates to S. cerevisiae. The settings on record: in words; cited from earlier work.
Data set [5] deals with Hansenula anomala. Conditions: in words; cited from earlier work.
In data set [6] the test system is Candida guilliermondii. The settings on record: in words; cited from earlier work.
In data set [7] the test system is Candida pseudotropicalis. The settings on record: in words; cited from earlier work.
Data set [8] has as its system Cryptococcus neoformans. Conditions: in words; cited from earlier work.

SMILES strings stand for the structures. Entries after “also recorded” stand apart in the source; their conditions may differ.

Chain of recombinant IMPDH from Pneumocystis carinii (Q12658 76-529): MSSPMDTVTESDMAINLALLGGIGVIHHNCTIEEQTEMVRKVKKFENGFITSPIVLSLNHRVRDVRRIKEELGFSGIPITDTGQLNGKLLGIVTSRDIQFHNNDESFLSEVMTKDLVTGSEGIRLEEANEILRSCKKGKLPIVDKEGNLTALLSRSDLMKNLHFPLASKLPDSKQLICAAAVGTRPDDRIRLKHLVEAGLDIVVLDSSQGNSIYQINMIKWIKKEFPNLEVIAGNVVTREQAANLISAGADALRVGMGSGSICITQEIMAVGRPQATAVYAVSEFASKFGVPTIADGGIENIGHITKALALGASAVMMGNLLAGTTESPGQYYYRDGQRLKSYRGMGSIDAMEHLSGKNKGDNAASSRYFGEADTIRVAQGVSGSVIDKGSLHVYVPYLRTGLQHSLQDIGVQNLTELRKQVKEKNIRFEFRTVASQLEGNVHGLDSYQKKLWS

Take `COc1c(C)c2c(c(O)c1C/C=C(\C)CCC(=O)O)C(=O)OC2` [mycophenolic acid]: in data set [1], the “effect on C. albicans” value is recorded as “inhibits in vitro the growth; also recorded: acts fungistatically”. Besides, the “concentration inhibiting growth of C. albicans cells” value in data set [1] (wild-type cells) is 1 µg/mL. Besides, the IC50 in data set [2] is 25 µM. Also, the “effect on growth in vitro” value in data set [3] is “ineffective”; in data set [4], “ineffective; also recorded: no effect”; in data set [5], “ineffective”; in data set [6], “ineffective”; in data set [7], “ineffective”; in data set [8], “inhibits in vitro the growth”.

Turning to `NC(=O)c1ncn([C@@H]2O[C@H](CO)[C@@H](O)[C@H]2O)c1O` [mizoribine], in data set [1], the “effect on C. albicans” value is given as “virtually ineffective”.
